From US8785478B2, “Viral polymerase inhibitors” (Biota Scientific Management Pty Ltd, priority 2012, dated 2014)
Converted amounts (≈) assume the structure as drawn. Like-named read-outs stand apart in the source and are kept apart here.

Assays:
1b (BK) NS5BΔ21 = biological target: T1, 1b (BK) NS5BΔ21 (Hepatitis C virus genotype 1b, UniProt P26663); experiment: HCV Polymerase Inhibition Assay; type: biochemical
T1 construct: 100 nM, 1b (BK) NS5BΔ21
Description: HCV polymerase reactions were carried out using a modified method of Howe et al., Antimicrobial Agents and Chemotherapy 2004 48(12): 4813-4821. Reactions contained a final concentration of, 0.5% DMSO, 100 nM, 1b (BK) NS5BΔ21, 20 mM Tris-HCl pH 7.5, 5 mM MgCl2, 5 mM MnCl2, 3 mM DTT, 0.05% BSA, 0.2 U/μL RNasin, 10 μg/mL Poly(rC) template, GTP (at Km) and 0.05 μCi/μL ^33P-GTP in a total reaction volume of 50 μL. Compounds were tested in a three fold dilution series, for example starting from 50 μM. Reactions were initiated with the addition of GTP and terminated after 90 min with 50 μL ice cold 0.2 M EDTA. Terminated reactions were transferred to DEAE 96-well filter plates, unincorporated nucleotides washed from the filters and 50 μL scintillation fluid added prior to reading on a scintillation counter. The compound concentration that reduced ^33P-GTP incorporation by 50% (IC50) was calculated using non-linear regression.

[1] = tested on: genotype 1b (Con 1) subgenomic replicon cell line; experiment: HCV replicon assay, genotype 1b (Renilla luciferase); type: cell-based; conditions: Hepatitis C virus, genotype 1b replicon
Description: (§1) A genotype 1b (Con 1) subgenomic replicon cell line based on Blight et al., Science 2000 290: 1972-1974, modified to express a Renilla luciferase reporter gene was used to assess antiviral activity of test compounds. Cell cultures were maintained in a sub-confluent state in DMEM with glutamine, 10% heat-inactivated foetal bovine serum (FBS) and G418 (Geneticin®).
(§2) For assay, cells were seeded at a density of 7000 cells/well into 96 well tissue culture trays in culture media lacking G418. Compounds were tested in a three fold dilution series, for example starting from 50 uM. After 72 hours incubation at 37° C. and 5% CO2, Renilla luciferase activity was quantified via the Promega Renilla Luciferase or Renilla-Glo™ Luciferase Assay Systems (Promega corporation. The same method was employed for replicon assays using subgenomic genotype 1a (H77) and 2a (JFH-1) replicon cell lines with a seeding cell density of 5000 cells/well for the 2a cell lines.
(§3) The compound concentration that reduced luciferase activity by 50% (EC50) was calculated using non-linear regression.

[2] = Aqueous solubility (laser nephelometry); type: physicochemical; conditions: for solubility at 30 min: aqueous assay buffer with 1% DMSO, kinetic from dmso stock, 30 minute incubation at 25° C.
Description: Test compounds prepared in DMSO were screened in duplicate over a range of concentrations (1.6-100 ug/mL) in different aqueous media (for example a pH6.5 buffers which are relevant to the stomach and upper regions of the small intestine and therefore important when predicting the amount of drug likely to be in solution following oral administration). Test compounds were serially diluted in 100% DMSO ranging from 10-0.16 mg/mL. These titrated DMSO stocks were then further diluted 1:100 with assay buffer and added to test plates (UV Star Griener 384 well plates), maintaining the DMSO concentration at 1%.

[3] = tested on: subgenomic genotype 1a (H77) replicon cell line; experiment: HCV replicon assay, genotype 1a (Renilla luciferase); type: cell-based; conditions: Hepatitis C virus; genotype 1a replicon; read-out: G1a (EC50 μM)
Description: as §1, §2, §3

[4] = tested on: subgenomic genotype 2a (JFH-1) replicon cell line; experiment: HCV replicon assay, genotype 2a (Renilla luciferase); type: cell-based; conditions: Hepatitis C virus; genotype 2a replicon; read-out: G2a (EC50 μM)
Description: as §1, §2, §3

[5] = Cytotoxicity analysis (MTT); type: cell-based; conditions: genotype 1b replicon cells, three days, read-out: G1b (CC50 μM)
Description: Cytotoxicity of compounds against genotype 1b replicon cells was determined via metabolism of the vital dye 3-(4,5-dimethylthiaxol-2-yl)-2,5-diphenyltetrazolium bromide (MTT, for example see Watanabe et al., Journal of Virological Methods 1994 48:257-265). Plates were prepared as described for the HCV Replicon assay and cytotoxicity of the test article was evaluated after three days. MTT was added to assay plates followed by three hour incubation at 37° C. Wells were aspirated to dryness and the formazan dye dissolved by the addition of isopropanol. Absorbance values were read at 540/690 nm). The compound concentration that reduced cell viability by 50% (CC50) was calculated using non-linear regression.

[6] = 1b polymerase IC50 (μM) range, genotype 1b NS5B, 33P-GTP incorporation
[7] = 72 hours, read-out: genotype 1b EC50 (μM) range
[8] = aqueous buffer, pH 6.5, 1% DMSO, read-out: Solubility pH 6.5
[9] = simulated gastric fluid, pH 2, 1% DMSO, read-out: Solubility pH 2
[10] = NS5B G1b (IC50 μM), genotype 1b polymerase

T1 sequence (P26663 2420-2989, stated change not applied): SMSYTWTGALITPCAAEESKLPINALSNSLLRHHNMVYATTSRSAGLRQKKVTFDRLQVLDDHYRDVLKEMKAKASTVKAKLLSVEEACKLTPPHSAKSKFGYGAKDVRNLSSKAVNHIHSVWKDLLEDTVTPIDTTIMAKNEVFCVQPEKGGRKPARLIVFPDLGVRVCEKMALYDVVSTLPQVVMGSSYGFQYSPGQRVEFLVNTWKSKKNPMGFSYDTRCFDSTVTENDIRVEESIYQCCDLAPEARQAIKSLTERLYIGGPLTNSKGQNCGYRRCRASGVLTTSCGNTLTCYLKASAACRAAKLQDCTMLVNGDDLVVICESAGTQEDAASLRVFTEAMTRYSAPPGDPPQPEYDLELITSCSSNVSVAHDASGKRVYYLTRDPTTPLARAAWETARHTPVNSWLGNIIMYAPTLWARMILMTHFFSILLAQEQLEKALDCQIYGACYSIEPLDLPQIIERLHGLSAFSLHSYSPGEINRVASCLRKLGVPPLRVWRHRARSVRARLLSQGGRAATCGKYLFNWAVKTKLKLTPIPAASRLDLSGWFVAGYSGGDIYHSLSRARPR

Row | Structure (SMILES) | IC50 (1b (BK) NS5BΔ21; [6]) | EC50 [1, 7] | solubility at 30 min [2, 8] | solubility at 30 min [2, 9] | IC50 (1b (BK) NS5BΔ21; [10]) | EC50 ([1]; read-out: G1b (EC50 μM)) | EC50 [3] | EC50 [4] | CC50 at 3 days [5] | times more potent than Compound A (1b (BK) NS5BΔ21; in each of the HCV assays tested (polymerase, replicon)) | solubility in words ([2]; at both pH2 and pH 6.5)
1 | CNC(=O)c1c2cc(C3CC3)c(N(CCO)S(C)(=O)=O)cc2nn1-c1ccc(C)cn1 [Compound 2, 5-cyclopropyl-6-[(2-hydroxyethyl)(methylsulfonyl)amino]-N-methyl-2-(5-methylpyridin-2-yl)-2H-indazole-3-carboxamide] | 1 to 10 µM | 0.1 to 0.49 µM | > 100 µg/mL | 50 to 100 µg/mL (≈ 113 to 225 µM) |  |  |  |  |  |  | 
2 | CNC(=O)c1c2cc(C3CC3)c(N(CC(F)F)S(C)(=O)=O)cc2nn1-c1ccc(C)cn1 [Compound 3, 5-cyclopropyl-6-[(2,2-difluoroethyl)(methylsulfonyl)amino]-N-methyl-2-(5-methylpyridin-2-yl)-2H-indazole-3-carboxamide] | 0.5 to 0.99 µM | < 0.1 µM | 50 to 100 µg/mL (≈ 108 to 216 µM) | 50 to 100 µg/mL (≈ 108 to 216 µM) |  |  |  |  |  |  | 
3 | CNC(=O)c1c2cc(C3CC3)c(N(CCC3COC3)S(C)(=O)=O)cc2nn1-c1ccc(C)cn1 [Compound 4, 5-cyclopropyl-N-methyl-2-(5-methylpyridin-2-yl)-6-{(methylsulfonyl)[2-(oxetan-3-yl)ethyl]amino}-2H-indazole-3-carboxamide] | 0.1 to 0.49 µM | < 0.1 µM |  |  | 0.388 µM | 0.054 µM | 0.035 µM | 0.293 µM | > 50 µM |  | 
4 | CCN(c1cc2nn(-c3ccc(C)cn3)c(C(=O)NC)c2cc1C1CC1)S(C)(=O)=O [Compound 5, 5-cyclopropyl-6-[ethyl(methylsulfonyl)amino]-N-methyl-2-(5-methylpyridin-2-yl)-2H-indazole-3-carboxamide] | 0.1 to 0.49 µM | < 0.1 µM | > 100 µg/mL | > 100 µg/mL | 0.283 µM | 0.03 µM | 0.068 µM | 0.147 µM | > 50 µM | at least 10 times | good solubility
5 | CNC(=O)c1c2cc(C3CC3)c(N(C)S(C)(=O)=O)cc2nn1-c1ccc(C)cn1 [Compound 6, 5-cyclopropyl-N-methyl-6-[methyl(methylsulfonyl)amino]-2-(5-methylpyridin-2-yl)-2H-indazole-3-carboxamide] | 0.1 to 0.49 µM | < 0.1 µM |  |  | 0.31 µM | 0.004 µM | 0.044 µM | 0.024 µM | > 50 µM |  | 
6 | CNC(=O)c1c2cc(C3CC3)c(N(CCF)S(C)(=O)=O)cc2nn1-c1ccc(C)cn1 [Compound 7, 5-cyclopropyl-6-[(2-fluoroethyl)(methylsulfonyl)amino]-N-methyl-2-(5-methylpyridin-2-yl)-2H-indazole-3-carboxamide] | 0.5 to 0.99 µM | < 0.1 µM |  |  |  |  |  |  |  |  | 
7 | CCN(c1cc2nn(-c3ccc(Cl)cn3)c(C(=O)NC)c2cc1C1CC1)S(C)(=O)=O [Compound 8, 2-(5-chloropyridin-2-yl)-5-cyclopropyl-6-[ethyl(methylsulfonyl)amino]-N-methyl-2H-indazole-3-carboxamide] | < 0.1 µM | < 0.1 µM |  |  | 0.091 µM | 0.009 µM | 0.016 µM | 0.04 µM | > 50 µM |  | 
8 | CNC(=O)c1c2cc(C3CC3)c(N(C)S(C)(=O)=O)cc2nn1-c1ccc(Cl)cn1 [Compound 9, 2-(5-chloropyridin-2-yl)-5-cyclopropyl-N-methyl-6-[methyl(methylsulfonyl)amino]-2H-indazole-3-carboxamide] | < 0.1 µM | < 0.1 µM |  |  | 0.054 µM | 0.008 µM | 0.031 µM | 0.055 µM | > 50 µM |  | 
9 | CNC(=O)c1c2cc(C3CC3)c(N(CCC3COC3C)S(C)(=O)=O)cc2nn1-c1ccc(C)cn1 (centres unmarked) [Compound 10, 5-cyclopropyl-N-methyl-6-{[2-(2-methyloxetan-3-yl)ethyl](methylsulfonyl)amino}-2-(5-methylpyridin-2-yl)-2H-indazole-3-carboxamide] | 0.5 to 0.99 µM | < 0.1 µM |  |  |  |  |  |  |  |  | 
10 | CNC(=O)c1c2cc(C3CC3)c(N(CCC3(C)COC3)S(C)(=O)=O)cc2nn1-c1ccc(C)cn1 [Compound 11, 5-cyclopropyl-N-methyl-6-{[2-(3-methyloxetan-3-yl)ethyl](methylsulfonyl)amino}-2-(5-methylpyridin-2-yl)-2H-indazole-3-carboxamide] | 0.1 to 0.49 µM | < 0.1 µM | 50 to 100 µg/mL (≈ 100 to 201 µM) | 50 to 100 µg/mL (≈ 100 to 201 µM) | 0.4 µM | 0.028 µM | 0.013 µM | 0.183 µM | > 50 µM |  | 
11 | CNC(=O)c1c2cc(C3CC3)c(N(C)S(C)(=O)=O)cc2nn1-c1ncc(C)s1 [Compound 13, 5-cyclopropyl-N-methyl-6-[methyl(methylsulfonyl)amino]-2-(5-methylthiazol-2-yl)indazole-3-carboxamide] |  | 0.1 to 0.49 µM |  |  |  |  |  |  |  |  | 
12 | CNC(=O)c1c2cc(C3CC3)c(N(C)S(C)(=O)=O)cc2nn1-c1ccccn1 [Compound 14, 5-cyclopropyl-N-methyl-6-[methyl(methylsulfonyl)amino]-2-(2-pyridyl)indazole-3-carboxamide] |  | 0.1 to 0.49 µM |  |  |  |  |  |  |  |  | 
13 | CNC(=O)c1c2cc(C3CC3)c(N(C)S(C)(=O)=O)cc2nn1-c1cc(C)c(Cl)cn1 [Compound 15, 2-(5-chloro-4-methyl-2-pyridyl)-5-cyclopropyl-N-methyl-6-[methyl(methylsulfonyl)amino]indazole-3-carboxamide] |  | 0.1 to 0.49 µM |  |  |  |  |  |  |  |  | 
14 | CNC(=O)c1c2cc(C3CC3)c(N(CCC3CN(C(=O)OC(C)(C)C)C3)S(C)(=O)=O)cc2nn1-c1ccc(C)cn1 [Compound 16, tert-butyl 3-[2-[[5-cyclopropyl-3-(methylcarbamoyl)-2-(5-methyl-2-pyridyl)indazol-6-yl]-methylsulfonyl-amino]ethyl]azetidine-1-carboxylate] | 1 to 10 µM | < 0.1 µM |  |  |  |  |  |  |  |  | 
15 | CNC(=O)c1c2cc(C3CC3)c(N(CCC3CN(C(C)=O)C3)S(C)(=O)=O)cc2nn1-c1ccc(C)cn1 [Compound 17, 6-[2-(1-acetylazetidin-3-yl)ethyl-methylsulfonyl-amino]-5-cyclopropyl-N-methyl-2-(5-methyl-2-pyridyl)indazole-3-carboxamide] | 0.5 to 0.99 µM | 0.1 to 0.49 µM | > 100 µg/mL | 50 to 100 µg/mL (≈ 95.3 to 191 µM) |  |  |  |  |  |  | 
16 | CNC(=O)c1c2cc(C3CC3)c(N(CCC3(OC)COC3)S(C)(=O)=O)cc2nn1-c1ccc(C)cn1 [Compound 18, 5-cyclopropyl-6-[2-(3-methoxyoxetan-3-yl)ethyl-methylsulfonyl-amino]-N-methyl-2-(5-methyl-2-pyridyl)indazole-3-carboxamide] | 0.1 to 0.49 µM | < 0.1 µM |  |  | 0.188 µM | 0.056 µM | 0.031 µM | 0.305 µM | > 50 µM |  | 
17 | CNC(=O)c1c2cc(C3CC3)c(N(CCC3COC3)S(C)(=O)=O)cc2nn1-c1ccc(Cl)cn1 [Compound 19, 2-(5-chloro-2-pyridyl)-5-cyclopropyl-N-methyl-6-[methylsulfonyl-[2-(oxetan-3-yl)ethyl]amino]indazole-3-carboxamide] | 0.1 to 0.49 µM | < 0.1 µM |  |  | 0.131 µM | 0.021 µM | 0.011 µM | 0.019 µM | > 50 µM |  | 
